# According to PMC6661766, “Antimicrobial, antioxidant and cytotoxic evaluation of diazenyl chalcones along with insights to mechanism of interaction by molecular docking studies” (BMC Chemistry, 2019):
# Like-named read-outs stand apart in the source and are kept apart here.
# Experiments:
# [1] = tested on: S. typhi; assay: Antimicrobial serial tube dilution, MIC and MBC; type: cell-based, Salmonella typhi MTCC 3216; conditions: for MIC / MBC: Salmonella enterica, TYPHI; for MIC: 24 h, read-out: S. typhi MIC; for MBC: read-out: S. typhi MBC
# Protocol: (§1) The synthesized diazenyl chalcones (C18 to C27) and controls (dyes A and E, and chalcone) were assessed for their antimicrobial activity by estimation of MIC and MBC/MFC values. […] The stock solutions of the test compounds and standard drugs having a concentration of 1000 µg ml^−1 were prepared by dissolving the used compounds in DMSO. The nutrient broth/Sabouraud dextrose broth was used for the serial dilution of the test compounds and referenced drugs for bacterial and fungal cultures, respectively. […] The size of the final inoculum in each test tube was taken as 5 × 10^5 CFU ml^−1. The incubation of the test and standard compounds of varying concentrations was done for 24 h at 37 ± 2 °C (bacterial culture) and for 48 h at 37 ± 2 °C (C. albicans) and for 7 d at 25 ± 2 °C (A. fumigatus). The diazenyl chalcones (C18–C27), were further evaluated for their bactericidal/fungicidal activity by estimation of MBC/MFC values. […] For proper mixing of culture media, the plates were shaken gently followed by incubation at the predefined temperature and time as stated earlier, followed by the visual inspection of the plates for signs of microbial growth.
# [2] = tested on: B. subtilis; assay: Antimicrobial serial tube dilution, MIC and MBC; type: cell-based, Bacillus subtilis MTCC 2063; conditions: for MIC / MBC: Bacillus subtilis; for MIC: read-out: B. subtilis MIC; for MBC: read-out: B. subtilis MBC
# Protocol: as §1
# [3] = tested on: E. coli; assay: Antimicrobial serial tube dilution, MIC and MBC; type: cell-based, Escherichia coli MTCC 1652
# Protocol: as §1
# [4] = tested on: B. cereus; assay: Antimicrobial serial tube dilution, MIC and MBC; type: cell-based, Bacillus cereus MTCC 1305
# Protocol: as §1
# [5] = tested on: C. albicans; assay: Antimicrobial serial tube dilution, MIC and MFC; type: cell-based, Candida albicans MTCC 227; conditions: for MIC / MFC: Candida albicans; for MIC: 48 h, read-out: C. albicans MIC; for MFC: read-out: C. albicans MFC
# Protocol: as §1
# [6] = tested on: A. fumigatus; assay: Antimicrobial serial tube dilution, MIC and MFC; type: cell-based, Aspergillus fumigatus MTCC 2584; conditions: for MIC / MFC: Aspergillus fumigatus; for MIC: 168 h, read-out: A. fumigatus MIC; for MFC: read-out: A. fumigatus MFC
# Protocol: as §1
# [7] = tested on: S. aureus; assay: Antimicrobial serial tube dilution, MIC and MBC; type: cell-based, Staphylococcus aureus MTCC 2901
# Protocol: as §1
# [8] = DPPH scavenging antioxidant assay
# Protocol: The derivatives (C18–C27) were assessed for their antioxidant potential in the presence of the stable free radical DPPH using ascorbic acid as the standard compound [36, 37]. […] The total volume of 200 µl was used in each well for each concentration of the test and standard drug containing 0.004 µg DPPH. The assay was performed in triplicate at all concentrations of each sample and standard compound. DPPH solutions in methanol at the same concentration without test drugs were used as the control. Each concentration of the sample and standard has a different blank. To minimize evaporation, the plate was covered with the lid and wrapped in aluminium foil and kept in the dark place in order to protect the DPPH radical from degradation by light and left for 30 min. After 30 min of incubation, the plate was kept in ELISA reader to measure the absorbance values at 517 nm. The experiment was performed in triplicate. The antioxidant activity of each sample was then calculated as per cent inhibition of DPPH according to the following equation: %decolourationofDPPH=ControlAbs-SampleAbs×100/ControlAbs
# [9] = Escherichia coli, 24 h, read-out: E. coli MIC, 24 h at 37 ± 2 °C
# [10] = Escherichia coli, read-out: E. coli MBC
# [11] = Bacillus cereus, 24 h, read-out: B. cereus MIC
# [12] = Bacillus cereus, read-out: B. cereus MBC
# [13] = Staphylococcus aureus, 24 h, read-out: S. aureus MIC
# [14] = Staphylococcus aureus, read-out: S. aureus MBC
Structure (SMILES),MIC [1] [µg/mL],MBC [1] [µg/mL],MIC ([2]; 24 h) [µg/mL],MBC [2] [µg/mL],"MIC [3, 9] [µg/mL]","MBC [3, 10] [µg/mL]","MIC [4, 11] [µg/mL]","MBC [4, 12] [µg/mL]",MIC [5] [µg/mL],MFC [5] [µg/mL],MIC [6] [µg/mL],MFC [6] [µg/mL],"MIC [7, 13] [µg/mL]",% inhibition of DPPH ([8]; 1.56 µg ml^−1) [%],% inhibition of DPPH ([8]; 3.12 µg ml^−1) [%],% inhibition of DPPH ([8]; 6.25 µg ml^−1) [%],% inhibition of DPPH ([8]; 12.5 µg ml^−1) [%],% inhibition of DPPH ([8]; 25 µg ml^−1) [%],% inhibition of DPPH ([8]; 50 µg ml^−1) [%],% inhibition of DPPH ([8]; 100 µg ml^−1) [%],also measured
"O=C(/C=C\c1cc(Br)ccc1O)c1ccc(N=Nc2c(O)cccc2O)cc1 [Compound C-21, (2Z)-3-(5-Bromo-2-hydroxyphenyl)-1-(4-((2,6-dihydroxyphenyl)diazenyl)phenyl)prop-2-en-1-one]",31.2,125,31.2,62.5,7.81 to 15.6,31.2,62.5,62.5,62.5,125,125,125,125,8.71,12.99,20.98,25.71,30.75,35.78,39.56,"E. coli MIC ([3]; 24 h at 37 ± 2 °C): 15.62 µg/mL; MBC [7, 14]: 125 µg/mL; melting point: 155 to 157 °C"
"CC1=C(C(=O)O)N2C(=O)[C@@H](NC(=O)[C@H](N)c3ccc(O)cc3)[C@H]2SC1 [Cefadroxil, cefadroxil, reference compound]",125,125,–,125,–,–,–,–,–,–,–,–,–,–,–,–,–,–,–,–,MIC ([2]; 24 h at 37 ± 2 °C): 62.5 µg/mL; MIC ([3]; Escherichia coli; 24 h at 37 ± 2 °C; read-out: E. coli MIC): 31.2 µg/mL; MBC ([3]; Escherichia coli; read-out: E. coli MBC): 31.2 µg/mL; MIC ([4]; Bacillus cereus; 24 h at 37 ± 2 °C; read-out: B. cereus MIC): 31.2 µg/mL; MBC ([4]; Bacillus cereus; read-out: B. cereus MBC): 31.2 µg/mL; MIC ([7]; Staphylococcus aureus; 24 h at 37 ± 2 °C; read-out: S. aureus MIC): 15.6 µg/mL; MBC ([7]; Staphylococcus aureus; read-out: S. aureus MBC): 31.2 µg/mL
"CC(=O)c1ccc(O)c(N=Nc2cccc(Cl)c2Cl)c1 [Dye A, 1-(3-((2,3-Dichlorophenyl)diazenyl)-4-hydroxyphenyl)ethanone]",62.5,62.5,125,125,15.6,31.2,31.2,31.2,62.5,62.5,125,125,125,4.65,9.23,11.97,17.67,22.18,29.87,35.45,"MBC [7, 14]: 125 µg/mL; melting point: 140 to 142 °C; IC50 DPPH [8]: > 100 µg/mL"
"O=C(/C=C\c1ccccc1[N+](=O)[O-])c1cccc(N=Nc2cccc(Cl)c2Cl)c1O [Compound C-20, (2Z)-1-(3-((2,3-Dichlorophenyl)diazenyl)-2-hydroxyphenyl)-3-(2-nitrophenyl)prop-2-en-1-one]",125,125,62.5,125,125,250,125,125,125,250,125,125,125,8.15,9.87,10.51,14.32,18.96,20.76,29.39,"MBC [7, 14]: 125 µg/mL; melting point: 105 to 107 °C; IC50 DPPH [8]: > 100 µg/mL"
"O=C(/C=C/c1ccc(Cl)cc1Cl)c1ccc(O)cc1 [Chalcone, (E)-3-(2,4-dichlorophenyl)-1-(4-hydroxyphenyl)prop-2-en-1-one]",–,–,–,–,–,–,–,–,–,–,–,–,–,6.54,8.12,10.76,16.90,21.57,34.56,51.80,S. typhi MBC [1]: 62.5 µg/mL; S. typhi MIC ([1]; 24 h at 37 ± 2 °C): 31.25 µg/mL; B. subtilis MBC [2]: 62.5 µg/mL; B. subtilis MIC ([2]; 24 h at 37 ± 2 °C): 62.5 µg/mL; E. coli MBC [3]: 31.25 µg/mL; E. coli MIC ([3]; 24 h at 37 ± 2 °C): 15.62 µg/mL; B. cereus MBC [4]: 62.5 µg/mL; B. cereus MIC ([4]; 24 h at 37 ± 2 °C): 62.5 µg/mL; C. albicans MFC [5]: 125 µg/mL; C. albicans MIC ([5]; 48 h at 37 ± 2 °C): 125 µg/mL; A. fumigatus MFC [6]: 125 µg/mL; A. fumigatus MIC ([6]; 7 d at 25 ± 2 °C): 125 µg/mL; S. aureus MBC [7]: 62.5 µg/mL; S. aureus MIC ([7]; 24 h at 37 ± 2 °C): 31.25 µg/mL; IC50 DPPH [8]: 76.77 µg/mL
